We go through eight compounds from paper PMC10907560, “Significant reduction of activity retention in the kidneys via optimized linker sequences in radiohybrid-based minigastrin analogs” (EJNMMI Research, 2024).

Where two headings read alike, the source gives them in different places. Numbered stars: 1 amine (or outer) side, 2 acyl side, 3 side chain; on linkers, the order of the positions; unused ones are H or OH. Square brackets hold non-standard residues; d marks the D form. Peptide text beside a SMILES is read from it. * marks the point of attachment. Benzoyl(4-SiFtBu2) = CC(C)(C)[Si](F)(c1ccc(C(=O)*)cc1)C(C)(C)C; X1 = CC(C)(C)[Si](F)(c1ccc(C[N+](C)(C)CC(=O)*)cc1)C(C)(C)C; DOTA = O=C(O)CN1CCN(CC(=O)O)CCN(CC(=O)*)CCN(CC(=O)O)CC1; PEG12 = NCCOCCOCCOCCOCCOCCOCCOCCOCCOCCOCCOCCOCCC(=O)O; d(γGlu) = O=C(O)[C@@H](CCC(=O)[*:2])N[*:1]; PEG8 = NCCOCCOCCOCCOCCOCCOCCOCCOCCC(=O)O; 1Nal = N[C@@H](Cc1cccc2ccccc12)C(=O)O; PEG5 = NCCOCCOCCOCCOCCOCCC(=O)O; NMeNle = CCCC[C@H](NC)C(=O)O; PEG4 = NCCOCCOCCOCCOCCC(=O)O; Nle = CCCC[C@H](N)C(=O)O; dDap = NC[C@@H](N)C(=O)O

For orientation: logD means lipophilicity at a set pH, counting ionised and neutral species. A lower logD goes with lower lipophilicity. For orientation: IC50 means the midpoint of a concentration-inhibition curve.

Data set [1] in a line: Lipophilicity, n-octanol/PBS distribution coefficient logD7.4. To be noted: 177Lu-labeled peptide; n-octanol/PBS (1/1), n ≥ 5. The data set is classed as physicochemical. Here is the method: For determination of lipophilicity, the respective ^177Lu-Labeled peptide precursor (~ 1 MBq, 10 µL in 0.04 M HCl) was added to a solution of n-octanol/PBS (1/1, v/v, 1 mL) and vigourously mixed for 3 min at room temperature (n ≥ 5). Afterwards both phases were seperated using a Biofuge 15 centrifuge (Heraus Sepatech GmbH, Osterode, Germany) at 9,000 rpm for 5 min. 200 µL aliquots of both layers were collected separately, measured in a γ-counter (Perkin Elmer, Waltham, MA, USA) and the logD7.4 value was obtained.

Data set [2] addresses T1, cholecystokinin-2 receptor (CCK-2R) (Rattus norvegicus, UniProt P30553).
T1 construct: host or cells: AR42J (rat pancreatic cancer cells)
T1 sequence (P30553 1-452): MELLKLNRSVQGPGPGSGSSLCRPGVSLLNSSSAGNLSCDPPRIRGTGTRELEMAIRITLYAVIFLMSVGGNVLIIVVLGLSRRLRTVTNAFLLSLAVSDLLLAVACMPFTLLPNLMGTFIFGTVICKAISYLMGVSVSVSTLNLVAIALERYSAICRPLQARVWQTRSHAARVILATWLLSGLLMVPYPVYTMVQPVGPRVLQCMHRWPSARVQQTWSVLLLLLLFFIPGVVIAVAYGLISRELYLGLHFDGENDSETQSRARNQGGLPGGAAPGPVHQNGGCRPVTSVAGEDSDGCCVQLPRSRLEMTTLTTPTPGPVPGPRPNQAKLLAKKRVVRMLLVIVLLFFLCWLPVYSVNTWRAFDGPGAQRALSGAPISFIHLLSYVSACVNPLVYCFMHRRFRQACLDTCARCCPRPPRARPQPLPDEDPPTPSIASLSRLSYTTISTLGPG
Description: CCK-2R affinity (apparent IC50), competitive binding on AR42J cells. To be noted: natLu-labeled peptide, 3 h, 37 °C, [177Lu]Lu-DOTA-PP-F11N (0.3 pmol) as radiolabeled reference. The procedure: On the next day, medium was removed, cells were washed with PBS (300 µL) and fresh nutrient medium supplemented with 5% BSA (200 µL) was added. The peptide of interest (25 µL in nutrient medium) in increasing concentrations (10^−10 to 10^−4 M) in triplicate as well as [^177Lu]Lu-DOTA-PP-F11N (25 μL, 0.3 pmol) were added to the cells and the assay was incubated for 3 h at 37 °C. Subsequently, the supernatant was collected, cells were washed with PBS (300 µL) and both fractions were unified. Cell lysis was conducted by addition of NaOH (300 µL, 1 N) and incubation for at least 20 min at room temperature. The supernatant was collected, the respective wells were washed with NaOH (300 µL, 1 N) and both fractions were unified. Radioactivity of all fractions collected was quantified using a γ-counter (PerkinElmer Inc., Waltham, United States). Apparent half-maximal inhibitory concentration (IC50) was calculated via the GraphPad PRISM software (GraphPad Software Inc., La Jolla, United States).
CCK-2R positive rat pancreatic cancer cells AR42J (CLS GmbH, Eppelheim, Germany) were cultivated in monolayers in CELLSTAR® cell culture flask (Greiner Bio-One GmbH, Frickenhausen, Germany) at 37°C in a humidified atmosphere (5% CO2). Therefor, a HERAcell 150i-Incubator (Thermo Fisher Scientific Inc., Waltham, United States) was used. RPMI 1640 medium, supplemented with 5 mM L-Gln 5 mL non-essential amino acids (100×) and 10% FCS, was used for cell nutrition. Detachment of the cells for passaging was conducted with a Dulbecco’s PBS solution supplemented with 0.1% EDTA (v/v). Cell numbers were determined with a Neubauer hemocytometer (Paul Marienfeld, Lauda-Königshofen, Germany). All operations requiring sterile conditions, were accomplished using a MSC-Advantage safety workbench (Thermo Fisher Scientific Inc., Waltham, United States).
Table S1. Affinity, lipophilicity and human serum albumin binding data of the compounds evaluated. Affinity data were determined on AR42J cells (2.0 × 10^5 cells/well) and [^177Lu]Lu-DOTA-PP-F11N (0.3 pmol/well) as radiolabeled reference (3 h, 37 °C, RPMI 1640, 5 mM L-Gln, 5 mL non-essential amino acids (100×), 10% FCS + 5% BSA (v/v)).

Data set [3] concerns the target T2, Human serum albumin (HSA) (Homo sapiens, UniProt P02768).
T2 construct: purchased Daicel, Tokyo, Japan H13H-2433
Put plainly: Human serum albumin binding via high performance affinity chromatography (HPAC). Type of data set: in vitro ADME. To be noted: Chiralpak HSA column, n = 1. Here is the method:
Human serum albumin (HSA) binding was determined via high performance affinity chromatography (HPAC), according to previously published protocols. Human serum albumin interaction was calculated according to the retention time (n = 1) of our compounds on a Chiralpak HSA column in dependence of nine reference compounds with known HSA interaction.
Human serum albumin binding was determined via high performance affinity chromatography. Therefore, a Chiralpak HSA column (50 × 3 mm, 5 µm, H13H-2433, Daicel, Tokyo, Japan) was used at a constant flow rate of 0.5 ml/min at room temperature. Mobile phase A consisted of a freshly prepared aqueous solution of NH4OAc (pH = 6.9, 50 mM) and mobile phase B of isopropanol. Calibration of the column was performed daily prior to experiments, by determining the retention times of nine reference substances displaying a HSA binding from 13 to 99%. HPLC gradient for all compounds tested was 100% A (0 to 3 min), followed by 80% A (3 to 40 min). All substances tested, were dissolved in a mixture of A/B (0.5 mg/mL, 1:1, v/v). OriginPro 2016G software (Northampton, United States) was used for non-linear regression and data evaluation.

The target of data set [4] is T1, cholecystokinin-2 receptor (CCK-2R). The note with it: AR42J cells; read-out: apparent IC50; cited from earlier work.
Data set [5] deals with AR42J tumor-bearing CB17-SCID mice. To be noted: 24 h p.i.; cited from earlier work.

T2 sequence (P02768 25-609): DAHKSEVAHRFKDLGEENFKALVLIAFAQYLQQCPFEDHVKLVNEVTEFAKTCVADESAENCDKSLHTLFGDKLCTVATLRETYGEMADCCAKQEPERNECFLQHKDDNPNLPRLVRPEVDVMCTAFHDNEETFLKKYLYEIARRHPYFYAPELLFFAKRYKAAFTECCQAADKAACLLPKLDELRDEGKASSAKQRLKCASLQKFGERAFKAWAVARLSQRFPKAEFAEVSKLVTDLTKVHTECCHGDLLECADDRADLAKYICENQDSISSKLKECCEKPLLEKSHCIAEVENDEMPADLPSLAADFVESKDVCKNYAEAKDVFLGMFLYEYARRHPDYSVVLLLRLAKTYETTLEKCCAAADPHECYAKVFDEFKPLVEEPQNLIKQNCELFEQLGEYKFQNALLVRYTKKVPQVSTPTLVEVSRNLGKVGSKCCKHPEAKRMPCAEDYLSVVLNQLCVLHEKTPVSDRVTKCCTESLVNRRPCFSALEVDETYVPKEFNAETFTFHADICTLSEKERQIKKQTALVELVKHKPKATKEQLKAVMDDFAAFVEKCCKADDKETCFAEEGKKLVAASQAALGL

For `CCCC[C@@H](C(=O)N[C@@H](CC(=O)O)C(=O)N[C@@H](Cc1cccc2ccccc12)C(N)=O)N(C)C(=O)[C@H](Cc1c[nH]c2ccccc12)NC(=O)CCOCCOCCOCCOCCNC(=O)CC[C@@H](NC(=O)CCOCCOCCOCCOCCOCCOCCOCCOCCOCCOCCOCCOCCNC(=O)CC[C@@H](NC(=O)[C@@H](CNC(=O)c1cc(C(=O)O)cc([Si](F)(C(C)(C)C)C(C)(C)C)c1)NC(=O)CN1CCN(CC(=O)O)CCN(CC(=O)O)CCN(CC(=O)O)CC1)C(=O)O)C(=O)O` [[^nat/177Lu]Lu-DOTA-rhCCK-69, DOTA-D-Dap(SiFA-ipa)-D-γ-Glu-(PEG)11-B, metal not drawn], the logD in data set [1] is -2.11 ± 0.09. Further, the IC50 in data set [2] (n = 3, listed as [^natLu]Lu-DOTA-rhCCK-69) is 42.1 ± 1.7 nM. The compound also registered an HSA binding in data set [3] of 84.7%.

Compound `CCCC[C@@H](C(=O)N[C@@H](CC(=O)O)C(=O)N[C@@H](Cc1cccc2ccccc12)C(N)=O)N(C)C(=O)[C@H](Cc1c[nH]c2ccccc12)NC(=O)CCOCCOCCOCCOCCNC(=O)CC[C@@H](NC(=O)CCOCCOCCOCCOCCOCCOCCOCCOCCNC(=O)CC[C@@H](NC(=O)[C@@H](CNC(=O)c1cc(C(=O)O)cc([Si](F)(C(C)(C)C)C(C)(C)C)c1)NC(=O)CN1CCN(CC(=O)O)CCN(CC(=O)O)CCN(CC(=O)O)CC1)C(=O)O)C(=O)O` [[^nat/177Lu]Lu-DOTA-rhCCK-72, DOTA-D-Dap(SiFA-ipa)-D-γ-Glu-(PEG)7-B, metal not drawn] had a log distribution coefficient (logD) in data set [1] of -2.32 ± 0.03. Besides, the HSA binding in data set [3] was determined as 89.3%.

For `CCCC[C@@H](C(=O)N[C@@H](CC(=O)O)C(=O)N[C@@H](Cc1cccc2ccccc12)C(N)=O)N(C)C(=O)[C@H](Cc1c[nH]c2ccccc12)NC(=O)CCOCCOCCOCCOCCNC(=O)CC[C@@H](NC(=O)CCOCCOCCOCCOCCOCCOCCOCCOCCNC(=O)[C@@H](CNC(=O)c1ccc([Si](F)(C(C)(C)C)C(C)(C)C)cc1)NC(=O)CN1CCN(CC(=O)O)CCN(CC(=O)O)CCN(CC(=O)O)CC1)C(=O)O` [[^nat/177Lu]Lu-DOTA-rhCCK-73, DOTA-D-Dap(p-SiFA)-(PEG)7-B, metal not drawn] ({DOTA}-[dDap](Benzoyl(4-SiFtBu2))[PEG8][d(γGlu)][PEG4]W[NMeNle]D[1Nal]-NH2), the log distribution coefficient (logD) in data set [1] is -1.02 ± 0.06. The HSA binding in data set [3] is 90.4%.

In the case of `CCCC[C@@H](C(=O)N[C@@H](CC(=O)O)C(=O)N[C@@H](Cc1cccc2ccccc12)C(N)=O)N(C)C(=O)[C@H](Cc1c[nH]c2ccccc12)NC(=O)CCOCCOCCOCCOCCNC(=O)CC[C@@H](NC(=O)CCOCCOCCOCCOCCOCCOCCOCCOCCOCCOCCOCCOCCNC(=O)[C@@H](CNC(=O)c1ccc([Si](F)(C(C)(C)C)C(C)(C)C)cc1)NC(=O)CN1CCN(CC(=O)O)CCN(CC(=O)O)CCN(CC(=O)O)CC1)C(=O)O` [[^nat/177Lu]Lu-DOTA-rhCCK-74, DOTA-D-Dap(p-SiFA)-(PEG)11-B, metal not drawn] ({DOTA}-[dDap](Benzoyl(4-SiFtBu2))[PEG12][d(γGlu)][PEG4]W[NMeNle]D[1Nal]-NH2), the logD in data set [1] was -1.19 ± 0.07. The same compound registered an HSA binding in data set [3] of 87.2%.

In turn, `CCCC[C@@H](C(=O)N[C@@H](CC(=O)O)C(=O)N[C@@H](Cc1cccc2ccccc12)C(N)=O)N(C)C(=O)[C@H](Cc1c[nH]c2ccccc12)NC(=O)CCOCCOCCOCCOCCNC(=O)CC[C@@H](NC(=O)CCOCCOCCOCCOCCOCCOCCOCCOCCOCCOCCOCCOCCNC(=O)CC[C@@H](NC(=O)[C@@H](CNC(=O)C[N+](C)(C)Cc1ccc([Si](F)(C(C)(C)C)C(C)(C)C)cc1)NC(=O)CN1CCN(CC(=O)O)CCN(CC(=O)O)CCN(CC(=O)O)CC1)C(=O)O)C(=O)O` [[^nat/177Lu]Lu-DOTA-rhCCK-75, DOTA-D-Dap(SiFAlin)-D-γ-Glu-(PEG)11-B, metal not drawn] gave a logD in data set [1] of -1.15 ± 0.05. This compound came in with an HSA binding in data set [3] of 90.9%.

In the case of `CCCC[C@@H](C(=O)N[C@@H](CC(=O)O)C(=O)N[C@@H](Cc1cccc2ccccc12)C(N)=O)N(C)C(=O)[C@H](Cc1c[nH]c2ccccc12)NC(=O)CCOCCOCCOCCOCCNC(=O)CC[C@@H](NC(=O)CCOCCOCCOCCOCCOCCOCCOCCOCCOCCOCCOCCOCCNC(=O)CC[C@@H](NC(=O)[C@@H](CNC(=O)c1ccc([Si](F)(C(C)(C)C)C(C)(C)C)cc1)NC(=O)CN1CCN(CC(=O)O)CCN(CC(=O)O)CCN(CC(=O)O)CC1)C(=O)O)C(=O)O` [[^nat/177Lu]Lu-DOTA-rhCCK-76, DOTA-D-Dap(p-SiFA)-D-γ-Glu-(PEG)11-B, metal not drawn], the logD in data set [1] is -1.82 ± 0.09. The compound further came in with an HSA binding in data set [3] of 86.2%.

As for `CCCC[C@@H](C(=O)N[C@@H](CC(=O)O)C(=O)N[C@@H](Cc1cccc2ccccc12)C(N)=O)N(C)C(=O)[C@H](Cc1c[nH]c2ccccc12)NC(=O)CCOCCOCCOCCOCCNC(=O)CC[C@@H](NC(=O)CCOCCOCCOCCOCCOCCNC(=O)[C@@H](CNC(=O)C[N+](C)(C)Cc1ccc([Si](F)(C(C)(C)C)C(C)(C)C)cc1)NC(=O)CN1CCN(CC(=O)O)CCN(CC(=O)O)CCN(CC(=O)O)CC1)C(=O)O` [[^nat/177Lu]Lu-DOTA-rhCCK-90, DOTA-D-Dap(SiFAlin)-(PEG)4-B, metal not drawn] ({DOTA}-[dDap](X1)[PEG5][d(γGlu)][PEG4]W[NMeNle]D[1Nal]-NH2), in data set [1], the pH-dependent lipophilicity (logD) was -0.76 ± 0.09. Further, the IC50 in data set [2] (n = 3) turned out to be 9.9 ± 1 nM. The compound further displayed an HSA binding in data set [3] of 94.5%.

“(R)-DOTAGA-D-Dap(p-SiFA)-(D-γ-Glu)6-Ala-Tyr-Gly-Trp-Nle-Asp-Phe-NH2 ({(R)‑DOTAGA-dDap(p-SiFA)-d(γGlu)-d(γGlu)-d(γGlu)-d(γGlu)-d(γGlu)-d(γGlu)}-AYGW[Nle]DF-NH2; also: 177Lu complex of DOTAGA) [[^177Lu]Lu-(R)-DOTAGA-rhCCK-16]”: the concentration for half-maximal inhibition (IC50) in data set [4] is 20.4 ± 2.7 nM. Also, in data set [5], the “activity levels in the tumor” value is 18.0 ± 0.7 %ID/g.
